Laboratory results as given in ChEMBL document CHEMBL3797113, “Structural requirements of acylated Gly-l-Ala-d-Glu analogs for activation of the innate immune receptor NOD2” (Eur J Med Chem, 2016).
The source made the active and inactive calls. No cut-off for these calls is given here.

Assays:
[1] = molecular target: T1, Nucleotide-binding oligomerization domain-containing protein 2 (Homo sapiens, UniProt Q9HC29); assay: Agonist activity at NOD2 receptor (unknown origin) expressed in HEK-Blue cells assessed as NF-kappaB transcriptional activity at 20 uM after 18 hrs by secreted embryonic alkaline phosphatase reporter gene assay relative to untreated control; format: cell-based
[2] = Cytotoxicity against NOD2 expressing HEK-Blue cells assessed as residual metabolic activity at 20 uM after 18 hrs by MTS assay relative to control; format: ADME, cell-based; details: human, read-out: Activity
[3] = molecular target: T2, Nucleotide-binding oligomerization domain-containing protein 1 (Homo sapiens) (UniProt Q9Y239); assay: Agonist activity at NOD1 receptor (unknown origin) expressed in HEK-Blue cells assessed as NF-kappaB transcriptional activity at 20 uM after 18 hrs by secreted embryonic alkaline phosphatase reporter gene assay; format: cell-based
T2 sequence (whole entry): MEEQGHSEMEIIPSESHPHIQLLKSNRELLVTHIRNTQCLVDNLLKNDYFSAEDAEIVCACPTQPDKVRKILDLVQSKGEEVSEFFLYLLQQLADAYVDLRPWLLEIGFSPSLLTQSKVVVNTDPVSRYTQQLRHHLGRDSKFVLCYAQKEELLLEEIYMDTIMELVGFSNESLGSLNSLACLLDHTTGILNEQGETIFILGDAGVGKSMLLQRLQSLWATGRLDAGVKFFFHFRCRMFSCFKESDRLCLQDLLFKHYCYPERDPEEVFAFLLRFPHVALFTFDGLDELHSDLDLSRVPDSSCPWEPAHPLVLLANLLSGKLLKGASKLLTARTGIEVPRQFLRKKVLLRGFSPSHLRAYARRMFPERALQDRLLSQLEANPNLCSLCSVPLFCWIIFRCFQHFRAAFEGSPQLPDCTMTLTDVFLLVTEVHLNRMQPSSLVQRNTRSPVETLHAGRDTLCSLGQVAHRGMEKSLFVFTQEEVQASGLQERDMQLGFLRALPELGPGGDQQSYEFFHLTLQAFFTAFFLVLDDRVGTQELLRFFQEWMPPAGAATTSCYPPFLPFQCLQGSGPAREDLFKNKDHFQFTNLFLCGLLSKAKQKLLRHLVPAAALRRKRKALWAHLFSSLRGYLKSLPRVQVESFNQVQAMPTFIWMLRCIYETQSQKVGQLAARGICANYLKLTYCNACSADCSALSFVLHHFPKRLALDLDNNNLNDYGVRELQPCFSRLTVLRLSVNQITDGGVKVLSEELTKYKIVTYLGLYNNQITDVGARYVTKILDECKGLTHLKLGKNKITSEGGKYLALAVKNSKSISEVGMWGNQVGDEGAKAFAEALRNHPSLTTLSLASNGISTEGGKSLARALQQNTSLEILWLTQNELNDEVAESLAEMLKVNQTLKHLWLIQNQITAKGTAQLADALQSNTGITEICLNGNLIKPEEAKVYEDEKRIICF

[4] = molecular target: T1, Nucleotide-binding oligomerization domain-containing protein 2; assay: Agonist activity at NOD2 receptor (unknown origin) expressed in HEK-Blue cells assessed as NF-kappaB transcriptional activity after 18 hrs by secreted embryonic alkaline phosphatase reporter gene assay; format: cell-based

T1 sequence (Q9HC29 whole entry, the tested form may be a part): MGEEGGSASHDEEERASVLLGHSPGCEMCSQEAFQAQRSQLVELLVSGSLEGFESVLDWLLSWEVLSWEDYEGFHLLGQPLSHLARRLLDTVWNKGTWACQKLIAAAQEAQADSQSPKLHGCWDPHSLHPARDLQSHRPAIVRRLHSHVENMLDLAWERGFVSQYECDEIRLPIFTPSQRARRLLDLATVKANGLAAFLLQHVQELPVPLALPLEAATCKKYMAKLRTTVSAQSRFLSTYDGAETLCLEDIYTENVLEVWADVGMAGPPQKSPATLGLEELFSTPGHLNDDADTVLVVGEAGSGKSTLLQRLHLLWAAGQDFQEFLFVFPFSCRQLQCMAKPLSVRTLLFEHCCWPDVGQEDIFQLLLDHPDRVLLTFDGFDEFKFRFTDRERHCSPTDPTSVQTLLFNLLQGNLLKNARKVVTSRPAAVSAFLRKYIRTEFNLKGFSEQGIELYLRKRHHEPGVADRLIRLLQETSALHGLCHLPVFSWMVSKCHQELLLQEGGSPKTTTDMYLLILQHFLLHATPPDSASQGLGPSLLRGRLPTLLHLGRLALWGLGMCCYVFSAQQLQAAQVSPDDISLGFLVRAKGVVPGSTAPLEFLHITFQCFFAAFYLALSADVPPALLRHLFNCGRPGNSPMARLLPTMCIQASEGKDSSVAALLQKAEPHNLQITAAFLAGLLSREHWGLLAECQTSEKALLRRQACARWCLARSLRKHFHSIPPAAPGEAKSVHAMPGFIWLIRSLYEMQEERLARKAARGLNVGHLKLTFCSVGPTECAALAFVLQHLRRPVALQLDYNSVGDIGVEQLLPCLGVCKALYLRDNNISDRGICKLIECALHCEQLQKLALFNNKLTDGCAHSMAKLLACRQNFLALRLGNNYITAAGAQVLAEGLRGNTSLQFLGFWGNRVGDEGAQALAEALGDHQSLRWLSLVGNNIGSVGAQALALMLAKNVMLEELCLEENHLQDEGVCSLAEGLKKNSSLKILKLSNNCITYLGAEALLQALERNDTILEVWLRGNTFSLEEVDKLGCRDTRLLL

| SMILES | fold change (FC) [1] | Activity [3] | Activity [4] | EC50 [4] | Activity [1] | viability at 18 h, 20 µM [2] |
| --- | --- | --- | --- | --- | --- | --- |
| CC(=O)N[C@H]1C(O)O[C@H](CO)[C@@H](O)[C@@H]1O[C@H](C)C(=O)N[C@@H](C)C(=O)N[C@H](CCC(=O)O)C(N)=O (some centres not stated) [MURAMYL DIPEPTIDE] | 11.5 | inactive | Dose-dependent effect | 46 nM |  |  |
| C[C@H](NC(=O)CNC(=O)c1cc2ccccc2[nH]1)C(=O)N[C@H](CCC(=O)O)C(=O)O | 2.1 | inactive |  |  |  | ≥ 80% |
| Cc1nc(CC[C@@H](NC(=O)[C@H](C)NC(=O)CNC(=O)c2cc3ccccc3[nH]2)c2noc(C)n2)no1 |  | inactive |  |  | inactive | ≥ 80% |
| CCOC(=O)CC[C@@H](NC(=O)[C@H](C)NC(=O)CNC(=O)c1cc2ccccc2n1Cc1ccc(F)cc1)C(=O)OCC | 2.8 | inactive |  |  |  | ≥ 80% |
| CCOC(=O)CC[C@@H](NC(=O)[C@H](C)NC(=O)CNC(=O)C1Cc2ccccc2N1)C(=O)OCC (some centres not stated) | 3.17 | inactive |  |  |  | ≥ 80% |
| CCOC(=O)CC[C@@H](NC(=O)[C@H](C)NC(=O)CNC(=O)C1Cc2ccccc2N1C(=O)OC(C)(C)C)C(=O)OCC (some centres not stated) | 2.58 | inactive |  |  |  | ≥ 80% |
| C[C@H](NC(=O)CNC(=O)c1cc2ccccc2[nH]1)C(=O)N[C@H](CCC(=O)OCc1ccccc1)C(=O)OCc1ccccc1 | 8.82 | inactive |  |  |  | ≥ 80% |
| CCOC(=O)CC[C@@H](NC(=O)[C@H](C)NC(=O)CNC(=O)c1cc2ccccc2n1C)C(=O)OCC | 2.14 | inactive |  |  |  | ≥ 80% |
| CCOC(=O)CC[C@@H](NC(=O)[C@H](C)NC(=O)CNC(=O)C(=O)Nc1ccccc1)C(=O)OCC | 1.15 | inactive |  |  |  | ≥ 80% |
| CCOC(=O)CC[C@@H](NC(=O)[C@H](C)NC(=O)CNC(=O)/C=C/c1ccccc1)C(=O)OCC | 7.37 | inactive |  |  |  | ≥ 80% |

The next lines start with results.

| fold change (FC) [1] | Activity [3] | Activity [4] | EC50 [4] | Activity [1] | SMILES | viability at 18 h, 20 µM [2] |
| --- | --- | --- | --- | --- | --- | --- |
| 10.4 | inactive |  |  |  | CCOC(=O)CC[C@@H](NC(=O)[C@H](C)NC(=O)CNC(=O)c1cc2cc(-c3ccccc3)ccc2[nH]1)C(=O)OCC | ≥ 80% |
| 11.2 | inactive | Dose-dependent effect | 2880 nM |  | CCOC(=O)CC[C@@H](NC(=O)[C@H](C)NC(=O)CNC(=O)c1cc2ccc(-c3ccccc3)cc2[nH]1)C(=O)OCC | ≥ 80% |
| 1.41 | inactive |  |  |  | CCOC(=O)CC[C@@H](NC(=O)[C@H](C)NC(=O)CCNC(=O)c1cc2ccccc2[nH]1)C(=O)OCC | ≥ 80% |
| 5.2 | inactive |  |  |  | CCOC(=O)CC[C@@H](NC(=O)[C@H](C)NC(=O)CNC(=O)c1cc2ccccc2[nH]1)C(=O)OCC |  |
| 4.58 | inactive |  |  |  | CCOC(=O)CC[C@@H](NC(=O)[C@H](C)NC(=O)CNC(=O)c1cc2cc(Br)ccc2[nH]1)C(=O)OCC | ≥ 80% |
| 6.51 | inactive |  |  |  | CCOC(=O)CC[C@@H](NC(=O)[C@H](C)NC(=O)CNC(=O)c1cc2cccc(-c3ccccc3)c2[nH]1)C(=O)OCC | ≥ 80% |
| 3.02 | inactive |  |  |  | CCOC(=O)CC[C@@H](NC(=O)[C@H](C)NC(=O)CNC(=O)c1cc2cc(F)ccc2[nH]1)C(=O)OCC | ≥ 80% |
| 2.95 | inactive |  |  |  | CCOC(=O)CC[C@@H](NC(=O)[C@H](C)NC(=O)CNC(=O)c1cc2c(-c3ccccc3)cccc2[nH]1)C(=O)OCC | ≥ 80% |
| 1.22 | inactive |  |  |  | CCOC(=O)CC[C@@H](NC(=O)[C@H](C)NC(=O)CNC(=O)c1c[nH]c2ccccc12)C(=O)OCC | ≥ 80% |
| 1.08 | inactive |  |  |  | CCOC(=O)CC[C@@H](NC(=O)[C@H](C)NC(=O)CNC(=O)c1ccc[nH]1)C(=O)OCC | ≥ 80% |
